Measured values as given in patent publication US11980188B2, “Spiro cyclohexanedione derivates as herbicides” (SYNGENTA PARTICIPATIONS AG, priority 2018, dated 2024).

Tests used:
Assay in all cases: Glasshouse herbicide test, pre- and post-emergence, percentage damage
Assay type in all cases: in vivo
[1] = tested on: Alopecurus myosuroides (ALOMY); conditions: 250 g/h, evaluated after 13 days, percentage damage on five point scale; for ALOMY POST: post-emergence; for ALOMY PRE: pre-emergence
Method: (§1) Seeds of a variety of test species are sown in standard soil in pots (Lolium perenne (LOLPE), Setaria faberi (SETFA), Alopecurus myosuroides (ALOMY), Echinochloa crus-galli (ECHCG), Avena fatua (AVEFA)). After cultivation for one day (pre-emergence) or after 8 days cultivation (post-emergence) under controlled conditions in a glasshouse (at 24/16° C., day/night; 14 hours light; 65% humidity), the plants are sprayed with an aqueous spray solution derived from the formulation of the technical active ingredient in acetone/water (50:50) solution containing 0.5% Tween 20 (polyoxyethelyene sorbitan monolaurate, CAS RN 9005-64-5). Compounds are applied at […]. The test plants are then grown in a glasshouse under controlled conditions in a glasshouse (at 24/16° C., day/night; 14 hours light; 65% humidity) and watered twice daily. After 13 days for pre and post-emergence, the test is evaluated for the percentage damage caused to the plant. The biological activities are shown in the following table on a five point scale (5=80-100%; 4=60-79%; 3=40-59%; 2=20-39%; 1=0-19%).

[2] = tested on: Echinochloa crus-galli (ECHCG); conditions: 250 g/h, evaluated after 13 days, percentage damage on five point scale; for ECHCG POST: post-emergence; for ECHCG PRE: pre-emergence
Method: as §1

[3] = tested on: Lolium perenne (LOLPE); conditions: 250 g/h, evaluated after 13 days, percentage damage on five point scale; for LOLPE POST: post-emergence; for LOLPE PRE: pre-emergence
Method: as §1

[4] = tested on: Setaria faberi (SETFA); conditions: 250 g/h, evaluated after 13 days, percentage damage on five point scale; for SETFA POST: post-emergence; for SETFA PRE: pre-emergence
Method: as §1

[5] = tested on: Avena fatua (AVEFA); conditions: 250 g/h, evaluated after 13 days, percentage damage on five point scale; for AVEFA POST: post-emergence; for AVEFA PRE: pre-emergence
Method: as §1

Compound	ALOMY POST [1]	ALOMY PRE [1]	ECHCG POST [2]	ECHCG PRE [2]	LOLPE POST [3]	LOLPE PRE [3]	SETFA POST [4]	SETFA PRE [4]	AVEFA POST [5]	AVEFA PRE [5]
Cc1cc(-c2ccc(F)cc2)cc(C)c1C1C(=O)CC2(CCN(C(=O)OC(C)(C)C)CC2)CC1=O [Compound A11]	5 (5=80-100%)	5 (5=80-100%)	5 (5=80-100%)	5 (5=80-100%)	5 (5=80-100%)	5 (5=80-100%)	5 (5=80-100%)	5 (5=80-100%)	4 (4=60-79%)	4 (4=60-79%)
Cc1cc(-c2ncc(F)cn2)cc(C)c1C1C(=O)CC2(CCN(C(=O)c3ccccc3)CC2)CC1=O [Compound A33]	5 (5=80-100%)	5 (5=80-100%)	5 (5=80-100%)	5 (5=80-100%)	5 (5=80-100%)	5 (5=80-100%)	5 (5=80-100%)	5 (5=80-100%)	5 (5=80-100%)	5 (5=80-100%)
Cc1cc(-c2ncc(F)cn2)cc(C)c1C1C(=O)CC2(CCN(C(=O)c3ccccn3)CC2)CC1=O [Compound A34]	5 (5=80-100%)	5 (5=80-100%)	5 (5=80-100%)	5 (5=80-100%)	5 (5=80-100%)	5 (5=80-100%)	5 (5=80-100%)	5 (5=80-100%)	5 (5=80-100%)	5 (5=80-100%)
CC(=O)OC1=C(c2c(C)cc(-c3ccc(F)cc3)cc2C)C(=O)CC2(CCN(C(C)=O)CC2)C1 [Compound P1]	5 (5=80-100%)	5 (5=80-100%)	5 (5=80-100%)	5 (5=80-100%)	5 (5=80-100%)	5 (5=80-100%)	5 (5=80-100%)	5 (5=80-100%)	5 (5=80-100%)	5 (5=80-100%)
CON1CCC2(CC1)CC(=O)C(c1c(C)cc(-c3ncc(Cl)cn3)cc1C)C(=O)C2 [Compound A1]	5 (5=80-100%)	5 (5=80-100%)	5 (5=80-100%)	5 (5=80-100%)	5 (5=80-100%)	5 (5=80-100%)	5 (5=80-100%)	5 (5=80-100%)	5 (5=80-100%)	5 (5=80-100%)
CC(=O)N1CCC2(CC1)CC(=O)C(c1c(C)cc(-n3cc(Cl)cn3)cc1C)C(=O)C2 [Compound A19]	5 (5=80-100%)	2 (2=20-39%)	4 (4=60-79%)	1 (1=0-19%)	5 (5=80-100%)	4 (4=60-79%)	5 (5=80-100%)	3 (3=40-59%)	5 (5=80-100%)	5 (5=80-100%)
CC(=O)N1CCC2(CC1)CC(=O)C(c1c(C)cc(-c3ccc(C#N)cn3)cc1C)C(=O)C2 [Compound A14]	5 (5=80-100%)	5 (5=80-100%)	–	5 (5=80-100%)	5 (5=80-100%)	5 (5=80-100%)	5 (5=80-100%)	5 (5=80-100%)	5 (5=80-100%)	5 (5=80-100%)
